Blank lines part the entries; values can stand above or below the compound they belong to.
Experiments:
[1] = target: JAK2 (Homo sapiens, UniProt O60674); assay: JAK2 Inhibition Assay; type: biochemical; details: JAK-2 enzyme, 15 μM poly(Glu)4Tyr, 12 μM ATP
Description: (§1) Compounds were screened for their ability to inhibit JAK3 using the assay shown below. Reactions were carried out in a kinase buffer containing 100 mM HEPES (pH 7.4), 1 mM DTT, 10 mM MgCl2, 25 mM NaCl, and 0.01% BSA. Substrate concentrations in the assay were 5 μM ATP (200 uCi/μmole ATP) and 1 μM poly(Glu)4Tyr. Reactions were carried out 25° C. and 1 nM JAK3.
(§2) To each well of a 96 well polycarbonate plate was added 1.5 μl of a candidate JAK3 inhibitor along with 50 μl of kinase buffer containing 2 μM poly(Glu)4Tyr and 10 μM ATP. This was then mixed and 50 μl of kinase buffer containing 2 nM JAK3 enzyme was added to start the reaction. After 20 minutes at room temperature (25° C.), the reaction was stopped with 50 μl of 20% trichloroacetic acid (TCA) that also contained 0.4 mM ATP. The entire contents of each well were then transferred to a 96 well glass fiber filter plate using a TomTek Cell Harvester. After washing, 60 μl of scintillation fluid was added and ^33P incorporation detected on a Perkin Elmer TopCount.
The assays were as described above in Example 36 except that JAK-2 enzyme was used, the final poly(Glu)4Tyr concentration was 15 μM, and final ATP concentration was 12 μM.

[2] = target: T1, JAK3 (Homo sapiens, UniProt P52333); assay: JAK3 Inhibition Assay; type: biochemical; details: 1 nM JAK3, 1 μM poly(Glu)4Tyr, 5 μM ATP, 25° C.; read-out: enzyme inhibition data (Ki) JAK3
T1 sequence (P52333 1-1124): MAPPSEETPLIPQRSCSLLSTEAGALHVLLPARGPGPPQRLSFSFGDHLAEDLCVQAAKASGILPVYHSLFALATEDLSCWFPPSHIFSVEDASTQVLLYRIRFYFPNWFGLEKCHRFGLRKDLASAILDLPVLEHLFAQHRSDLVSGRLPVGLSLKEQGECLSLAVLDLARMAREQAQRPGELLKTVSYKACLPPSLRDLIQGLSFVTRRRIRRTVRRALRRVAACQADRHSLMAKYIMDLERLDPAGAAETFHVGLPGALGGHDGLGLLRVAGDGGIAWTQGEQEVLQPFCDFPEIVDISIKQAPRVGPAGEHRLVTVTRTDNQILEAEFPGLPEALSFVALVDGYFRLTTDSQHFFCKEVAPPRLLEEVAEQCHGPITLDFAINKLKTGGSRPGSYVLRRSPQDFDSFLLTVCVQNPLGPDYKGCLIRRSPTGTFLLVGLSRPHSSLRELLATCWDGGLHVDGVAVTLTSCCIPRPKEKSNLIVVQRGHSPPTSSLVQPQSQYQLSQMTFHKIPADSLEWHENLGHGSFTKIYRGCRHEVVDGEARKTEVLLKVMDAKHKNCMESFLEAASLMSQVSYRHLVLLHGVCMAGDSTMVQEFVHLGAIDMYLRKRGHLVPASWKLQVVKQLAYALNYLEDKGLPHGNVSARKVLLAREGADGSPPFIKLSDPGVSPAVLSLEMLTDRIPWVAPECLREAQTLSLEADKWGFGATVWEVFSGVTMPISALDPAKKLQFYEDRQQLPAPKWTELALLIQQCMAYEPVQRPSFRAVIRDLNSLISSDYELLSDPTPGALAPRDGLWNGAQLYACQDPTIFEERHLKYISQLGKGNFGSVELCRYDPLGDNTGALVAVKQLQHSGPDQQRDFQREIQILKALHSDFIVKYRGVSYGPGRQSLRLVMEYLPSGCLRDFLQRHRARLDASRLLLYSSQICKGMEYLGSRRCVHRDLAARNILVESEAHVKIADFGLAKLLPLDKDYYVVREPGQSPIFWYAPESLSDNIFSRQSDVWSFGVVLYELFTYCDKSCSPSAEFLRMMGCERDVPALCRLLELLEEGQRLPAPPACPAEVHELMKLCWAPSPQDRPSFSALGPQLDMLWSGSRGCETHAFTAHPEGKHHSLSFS
Description: as §1, §2

JAK2, sequence (O60674 whole entry): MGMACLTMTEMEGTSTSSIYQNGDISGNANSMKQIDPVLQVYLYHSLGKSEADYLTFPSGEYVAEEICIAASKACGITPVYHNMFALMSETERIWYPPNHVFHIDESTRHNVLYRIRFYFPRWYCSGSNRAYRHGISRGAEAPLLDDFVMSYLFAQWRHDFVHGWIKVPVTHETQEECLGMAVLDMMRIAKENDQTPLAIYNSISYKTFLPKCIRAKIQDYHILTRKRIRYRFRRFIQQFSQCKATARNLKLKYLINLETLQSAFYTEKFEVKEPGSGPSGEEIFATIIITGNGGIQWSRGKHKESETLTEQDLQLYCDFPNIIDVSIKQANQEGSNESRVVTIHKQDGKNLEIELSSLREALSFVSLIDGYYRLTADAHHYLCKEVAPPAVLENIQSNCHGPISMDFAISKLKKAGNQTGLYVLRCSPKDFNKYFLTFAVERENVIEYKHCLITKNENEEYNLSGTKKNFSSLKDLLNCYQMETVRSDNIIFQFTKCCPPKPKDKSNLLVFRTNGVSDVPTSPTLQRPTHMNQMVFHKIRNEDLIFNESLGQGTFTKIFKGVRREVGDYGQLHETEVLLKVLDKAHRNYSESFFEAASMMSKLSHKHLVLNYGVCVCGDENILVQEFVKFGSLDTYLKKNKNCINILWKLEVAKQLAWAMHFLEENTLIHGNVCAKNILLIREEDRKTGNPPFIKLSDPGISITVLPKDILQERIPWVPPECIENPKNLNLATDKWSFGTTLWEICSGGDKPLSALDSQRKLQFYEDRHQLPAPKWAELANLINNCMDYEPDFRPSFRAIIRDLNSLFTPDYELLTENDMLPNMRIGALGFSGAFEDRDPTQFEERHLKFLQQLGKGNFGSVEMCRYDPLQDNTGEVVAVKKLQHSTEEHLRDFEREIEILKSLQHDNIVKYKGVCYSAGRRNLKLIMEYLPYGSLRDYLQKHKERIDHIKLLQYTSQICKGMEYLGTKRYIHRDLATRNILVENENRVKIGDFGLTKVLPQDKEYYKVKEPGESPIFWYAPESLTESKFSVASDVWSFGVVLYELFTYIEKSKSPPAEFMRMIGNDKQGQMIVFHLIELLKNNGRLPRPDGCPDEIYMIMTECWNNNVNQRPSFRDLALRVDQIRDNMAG

Structure (SMILES): C[C@H](Nc1cc(C(=O)O)nc(-c2c[nH]c3ncncc23)n1)C(=O)NCC(F)(F)F [Compound 3, 6-((S)-1-(2,2,2-trifluoroethylcarbamoyl)ethylamino)-2-(7H-pyrrolo[2,3-d]pyrimidin-5-yl)pyrimidine-4-carboxylic acid]
Ki [1]: > 5000 nM | Ki [2]: < 500 nM

Structure (SMILES): Fc1cnc(-c2c[nH]c3ncncc23)nc1N1CCCC1 [Compound 24, 5-(5-fluoro-4-(pyrrolidin-1-yl)pyrimidin-2-yl)-7H-pyrrolo[2,3-d]pyrimidine]
Ki [1]: 500 to 5000 nM | Ki [2]: 500 to 5000 nM

Structure (SMILES): COC[C@H](Nc1nc(-c2c[nH]c3ncncc23)ncc1F)C(=O)NCC(F)(F)F [Compound 42, (S)-2-(5-fluoro-2-(7H-pyrrolo[2,3-d]pyrimidin-5-yl)pyrimidin-4-ylamino)-N-(2,2,2-trifluoroethyl)-3-methoxypropanamide]
Ki [1]: 500 to 5000 nM | Ki [2]: < 500 nM

Structure (SMILES): COC[C@H]1CCCN1C(=O)c1cc(N[C@@H](C)C(=O)NCC(F)(F)F)nc(-c2c[nH]c3ncncc23)n1 [Compound 11]
Ki [1]: > 5000 nM | Ki [2]: 500 to 5000 nM

Structure (SMILES): CC(C)(C)OC(=O)N1CC=C(c2cccc(-c3c[nH]c4ncncc34)n2)CC1 [Compound 28, 6-(7H-Pyrrolo[2,3-d]pyrimidin-5-yl)-3′,6′-dihydro-2′H-[2,4′]bipyridinyl-1′-carboxylic acid tert-butyl ester]
Ki [1]: 500 to 5000 nM | Ki [2]: 500 to 5000 nM

Structure (SMILES): O=C(CNc1nc(-c2c[nH]c3ncncc23)ncc1F)NCC(F)(F)F [Compound 70]
Ki [1]: 500 to 5000 nM | Ki [2]: < 500 nM

Structure (SMILES): COC[C@H](Nc1ccnc(-c2c[nH]c3ncncc23)n1)C(=O)NCC(F)(F)F [Compound 48, (S)-2-(2-(7H-pyrrolo[2,3-d]pyrimidin-5-yl)pyrimidin-4-ylamino)-N-(2,2,2-trifluoroethyl)-3-methoxypropanamide]
Ki [1]: > 5000 nM | Ki [2]: 500 to 5000 nM

Structure (SMILES): C[C@H](Nc1cc(C(=O)N(C)CCO)nc(-c2c[nH]c3ncncc23)n1)C(=O)NCC(F)(F)F [Compound 15]
Ki [1]: 500 to 5000 nM | Ki [2]: 500 to 5000 nM

Structure (SMILES): CC(C)[C@](C)(Nc1nc(-c2c[nH]c3ncncc23)ncc1F)C(=O)NCC(F)(F)F [Compound 75]
Ki [1]: 500 to 5000 nM | Ki [2]: < 500 nM

Structure (SMILES): O=C(NCC(F)(F)F)[C@@H]1CCN1c1cnc(-c2c[nH]c3ncncc23)nc1 [Compound 55]
Ki [1]: 500 to 5000 nM | Ki [2]: 500 to 5000 nM

Structure (SMILES): C[C@H](Nc1cc(C(=O)N2CCC[C@H]2CO)nc(-c2c[nH]c3ncncc23)n1)C(=O)NCC(F)(F)F [Compound 8]
Ki [1]: 500 to 5000 nM | Ki [2]: < 500 nM

Structure (SMILES): O=C(NCC(F)(F)F)[C@H]1C[C@H](O)CN1c1nc(-c2c[nH]c3ncncc23)ncc1F [Compound 93]
Ki [1]: 500 to 5000 nM | Ki [2]: < 500 nM

Structure (SMILES): C[C@H](Nc1nc(-c2c[nH]c3ncncc23)nc(N2CCCC2)n1)C(=O)NCC(F)(F)F [Compound 33, (S)-2-(4-(pyrrolidin-1-yl)-6-(7H-pyrrolo[2,3-d]pyrimidin-5-yl)-1,3,5-triazin-2-ylamino)-N-(2,2,2-trifluoroethyl)propanamide]
Ki [1]: > 5000 nM | Ki [2]: > 5000 nM

Structure (SMILES): C[C@@H](Nc1ncnc(-c2c[nH]c3ncncc23)n1)C(=O)NCC(F)(F)F [Compound 78, (R)-2-(4-(7H-pyrrolo[2,3-d]pyrimidin-5-yl)-1,3,5-triazin-2-ylamino)-N-(2,2,2-trifluoroethyl)propanamide]
Ki [1]: 500 to 5000 nM | Ki [2]: < 500 nM

Structure (SMILES): CN(c1nc(-c2c[nH]c3ncncc23)ncc1F)C(C(=O)NCC(F)(F)F)c1ccccc1 (stereo not drawn) [Compound 100]
Ki [1]: 500 to 5000 nM | Ki [2]: < 500 nM

Structure (SMILES): C[C@H](Nc1nc(-c2c[nH]c3ncncc23)nc2ccccc12)C(=O)NCC(F)(F)F [Compound 34]
Ki [1]: 500 to 5000 nM | Ki [2]: < 500 nM

Structure (SMILES): C[C@H](Nc1nc(-c2c[nH]c3ncncc23)cc(N2CCCC2)n1)C(=O)NCC(F)(F)F [Compound 31, (S)-2-(4-(pyrrolidin-1-yl)-6-(7H-pyrrolo[2,3-d]pyrimidin-5-yl)pyrimidin-2-ylamino)-N-(2,2,2-trifluoroethyl)propanamide]
Ki [1]: > 5000 nM | Ki [2]: 500 to 5000 nM

Structure (SMILES): O=C(NCC(F)(F)F)C(Nc1nc(-c2c[nH]c3ncncc23)ncc1F)c1cccnc1 (stereo not drawn) [Compound 67]
Ki [1]: 500 to 5000 nM | Ki [2]: 500 to 5000 nM

Further lines, results first:

Ki [1]: 500 to 5000 nM | Ki [2]: < 500 nM
Structure (SMILES): CC[C@](C)(Nc1nc(-c2c[nH]c3ncncc23)ncc1F)C(=O)NCC(F)(F)F [Compound 77]

Ki [1]: 500 to 5000 nM | Ki [2]: 500 to 5000 nM
Structure (SMILES): OC[C@@H]1CCCN1c1nc(-c2c[nH]c3ncncc23)ncc1F [Compound 21, ((S)-1-(5-fluoro-2-(7H-pyrrolo[2,3-d]pyrimidin-5-yl)pyrimidin-4-yl)pyrrolidin-2-yl)methanol]

Ki [1]: < 500 nM | Ki [2]: < 500 nM
Structure (SMILES): C[C@H](Nc1nc(-c2c[nH]c3ncncc23)ncc1F)c1ccc(F)cc1 [Compound 59]

Ki [1]: < 500 nM | Ki [2]: < 500 nM
Structure (SMILES): O=C(NCC(F)(F)F)C1(Nc2ccnc(-c3c[nH]c4ncncc34)n2)CCCC1 [Compound 98]

Ki [1]: < 500 nM | Ki [2]: < 500 nM
Structure (SMILES): O=C(NCC(F)(F)F)C1(Nc2ncnc(-c3c[nH]c4ncncc34)n2)CCCC1 [Compound 92]

Ki [1]: < 500 nM | Ki [2]: < 500 nM
Structure (SMILES): CC(C)[C@@](C)(Nc1nc(-c2c[nH]c3ncncc23)ncc1F)C(=O)NCC(F)(F)F [Compound 65]

Ki [1]: < 500 nM | Ki [2]: < 500 nM
Structure (SMILES): O=C(CCn1ccc2cnc(-c3c[nH]c4ncncc34)nc21)NCC(F)(F)F [Compound 111]

Ki [1]: < 500 nM | Ki [2]: < 500 nM
Structure (SMILES): C[C@H](Nc1nc(-c2c[nH]c3ncncc23)ncc1F)C(=O)NCC(F)(F)F [Compound 6, (S)-2-(5-fluoro-2-(7H-pyrrolo[2,3-d]pyrimidin-5-yl)pyrimidin-4-ylamino)-N-(2,2,2-trifluoroethyl)propanamide]

Ki [1]: < 500 nM | Ki [2]: < 500 nM
Structure (SMILES): O=C(Cn1ccc2cnc(-c3c[nH]c4ncncc34)nc21)NCC(F)(F)F [Compound 109]

Ki [1]: < 500 nM | Ki [2]: < 500 nM
Structure (SMILES): O=C(NCC(F)(F)F)[C@H]1C[C@H](O)CN1c1ccnc(-c2c[nH]c3ncncc23)n1 [Compound 94]

Ki [1]: < 500 nM | Ki [2]: < 500 nM
Structure (SMILES): CC(C)C(C(=O)NCC(F)(F)F)N(C)c1nc(-c2c[nH]c3ncncc23)ncc1F (stereo not drawn) [Compound 66]

Ki [1]: < 500 nM | Ki [2]: < 500 nM
Structure (SMILES): O=C(NCC(F)(F)F)C1(Nc2nc(-c3c[nH]c4ncncc34)ncc2F)CCCCC1 [Compound 62]

Ki [1]: < 500 nM | Ki [2]: < 500 nM
Structure (SMILES): C[C@@H](Nc1nc(-c2c[nH]c3ncncc23)ncc1F)c1ccc(F)cc1 [Compound 58]

Ki [1]: < 500 nM | Ki [2]: < 500 nM
Structure (SMILES): CC(C)(Nc1nc(-c2c[nH]c3ncncc23)ncc1F)C(=O)NCC(F)F [Compound 107]

Ki [1]: < 500 nM | Ki [2]: < 500 nM
Structure (SMILES): O=C(NCC(F)(F)F)C(CC(F)(F)F)Nc1nc(-c2c[nH]c3ncncc23)ncc1F (stereo not drawn) [Compound 45, 2-(5-fluoro-2-(7H-pyrrolo[2,3-d]pyrimidin-5-yl)pyrimidin-4-ylamino)-4,4,4-trifluoro-N-(2,2,2-trifluoroethyl)butanamide]

Ki [1]: < 500 nM | Ki [2]: < 500 nM
Structure (SMILES): CC[C@@](C)(Nc1ccnc(-c2c[nH]c3ncncc23)n1)C(=O)NCC(F)(F)F [Compound 80]

Ki [1]: < 500 nM | Ki [2]: < 500 nM
Structure (SMILES): CC(C)[C@@H](Nc1ccnc(-c2c[nH]c3ncncc23)n1)C(=O)NCC(F)(F)F [Compound 68]

Ki [1]: < 500 nM | Ki [2]: < 500 nM
Structure (SMILES): CC(C)(C(=O)NCC(F)(F)F)n1cnc2cnc(-c3c[nH]c4ncncc34)nc21 [Compound 108, 2-(2-(7H-pyrrolo[2,3-d]pyrimidin-5-yl)-9H-purin-9-yl)-N-(2,2,2-trifluoroethyl)-2-methylpropanamide]

— patent US8580802B2, “Pyrrolo[2,3-D]pyrimidines as inhibitors of Janus kinases” (Vertex Pharmaceuticals Incorporated, priority 2005, dated 2013)
